Counter-ions that a name gives are not always drawn. ± gives the standard error.
Experiments:
[1] = system: 621-102 (TSC2-deficient); experiment: relative viability vs DMSO (fraction); higher = less cytotoxic; settings: serum: 0.1% FBS, 72 h
[2] = system: 621-103 (TSC2-rescued); experiment: relative viability vs DMSO; higher = less cytotoxic; settings: serum: 10% FBS, 72 h
[3] = system: 621-102 (TSC2-deficient); experiment: as above; settings: serum: 10% FBS, 72 h

| Structure (SMILES) | relative viability ([1]; 0.0128 nM) | relative viability ([1]; 0.064 nM) | relative viability ([1]; 0.32 nM) | relative viability ([1]; 1.6 nM) | relative viability ([1]; 8 nM) | relative viability ([1]; 40 nM) | relative viability ([1]; 200 nM) | relative viability ([1]; 1000 nM) | relative viability ([1]; 5000 nM) | relative viability ([2]; 0.0001 µM) [%] | relative viability ([2]; 0.001 µM) [%] | relative viability ([2]; 0.01 µM) [%] | relative viability ([2]; 0.1 µM) [%] | relative viability ([2]; 1 µM) [%] | relative viability ([2]; 10 µM) [%] | relative viability ([3]; 0.0001 µM) [%] | relative viability ([3]; 0.001 µM) [%] | relative viability ([3]; 0.01 µM) [%] | relative viability ([3]; 0.1 µM) [%] | relative viability ([3]; 1 µM) [%] | relative viability ([3]; 10 µM) [%] |
| --- | --- | --- | --- | --- | --- | --- | --- | --- | --- | --- | --- | --- | --- | --- | --- | --- | --- | --- | --- | --- | --- |
| COc1cccc2c1C(=O)c1c(O)c3c(c(O)c1C2=O)C[C@@](O)(C(=O)CO)C[C@@H]3O[C@H]1C[C@H](N)[C@H](O)[C@H](C)O1 [Doxorubicin (adriamycin)] | 0.343 | 0.2 | 0.0923 | 0.107 | 0.128 | 0.0761 | 0.0129 | 0.00359 | 0.00442 |  |  |  |  |  |  |  |  |  |  |  |  |
| CN(C)C1CCN(C(=O)c2ccc(NC(=O)Nc3ccc(-c4nc(N5CCOCC5)nc(N5CCOCC5)n4)cc3)cc2)CC1 [PKI587] | 0.515 | 0.487 | 0.471 | 0.338 | 0.266 | 0.196 | 0.128 | 0.0333 | 0.0113 |  |  |  |  |  |  |  |  |  |  |  |  |
| C[C@]12CC[C@H]3[C@@H](CC[C@@]45O[C@@H]4C(O)=C(C#N)C[C@]35C)[C@@H]1CC[C@@H]2O [Trilostane] |  |  |  |  |  |  |  |  |  | 102 ± 1.8 | 106.6 ± 0.25 | 106.2 ± 0.28 | 101 ± 2.7 | 102.8 ± 0.34 | 100 ± 1.9 | 104 ± 4.1 | 94 ± 6 | 93.7 ± 0.94 | 101 ± 2.1 | 98.3 ± 5.8 | 99.2 ± 5 |
| CN1[C@@H]2CC[C@H]1C[C@@H](OC(=O)c1c[nH]c3ccccc13)C2 [Tropisetron HCl] |  |  |  |  |  |  |  |  |  | 89.7 ± 3 | 96.7 ± 2.6 | 102 ± 2.4 | 95.48 ± 0.32 | 106.6 ± 0.86 | 84.7 ± 1.7 | 82.2 ± 3.4 | 94 ± 3.9 | 99.6 ± 3.9 | 106 ± 2 | 99.47 ± 0.15 | 93.3 ± 1.3 |
| O=C(O[C@H]1C[C@H]2CC[C@@H](C1)[N+]21CCCC1)C(O)(c1ccccc1)c1ccccc1 [Trospium chloride (Sanctura)] |  |  |  |  |  |  |  |  |  | 82.71 ± 0.81 | 91.5 ± 2.9 | 93.15 ± 0.86 | 102 ± 3.1 | 98.6 ± 5.3 | 92.1 ± 4.1 | 116 ± 2.6 | 99.2 ± 1.8 | 110 ± 5.9 | 95.4 ± 6.1 | 112 ± 5 | 110 ± 3.5 |

Source: the supplement of paper PMC8960247
